Patent US12030876B2, “Aryl hydrocarbon receptor (AHR) agonists and uses thereof” (Ikena Oncology, Inc., priority 2019, dated 2024)

These molecules were tested against T1, AHR (Homo sapiens, UniProt P35869) (assay: DRE-Luciferase Reporter Assay, HepG2 (agonist)). Conditions: DRE-Luc HepG2 - Agonist: Average EC50 (μM), HepG2, Table 2.
T1 construct: endogenous in cells; host or cells: HepG2 (human), transfected with a DRE-luciferase reporter only
T1 sequence (P35869 11-848): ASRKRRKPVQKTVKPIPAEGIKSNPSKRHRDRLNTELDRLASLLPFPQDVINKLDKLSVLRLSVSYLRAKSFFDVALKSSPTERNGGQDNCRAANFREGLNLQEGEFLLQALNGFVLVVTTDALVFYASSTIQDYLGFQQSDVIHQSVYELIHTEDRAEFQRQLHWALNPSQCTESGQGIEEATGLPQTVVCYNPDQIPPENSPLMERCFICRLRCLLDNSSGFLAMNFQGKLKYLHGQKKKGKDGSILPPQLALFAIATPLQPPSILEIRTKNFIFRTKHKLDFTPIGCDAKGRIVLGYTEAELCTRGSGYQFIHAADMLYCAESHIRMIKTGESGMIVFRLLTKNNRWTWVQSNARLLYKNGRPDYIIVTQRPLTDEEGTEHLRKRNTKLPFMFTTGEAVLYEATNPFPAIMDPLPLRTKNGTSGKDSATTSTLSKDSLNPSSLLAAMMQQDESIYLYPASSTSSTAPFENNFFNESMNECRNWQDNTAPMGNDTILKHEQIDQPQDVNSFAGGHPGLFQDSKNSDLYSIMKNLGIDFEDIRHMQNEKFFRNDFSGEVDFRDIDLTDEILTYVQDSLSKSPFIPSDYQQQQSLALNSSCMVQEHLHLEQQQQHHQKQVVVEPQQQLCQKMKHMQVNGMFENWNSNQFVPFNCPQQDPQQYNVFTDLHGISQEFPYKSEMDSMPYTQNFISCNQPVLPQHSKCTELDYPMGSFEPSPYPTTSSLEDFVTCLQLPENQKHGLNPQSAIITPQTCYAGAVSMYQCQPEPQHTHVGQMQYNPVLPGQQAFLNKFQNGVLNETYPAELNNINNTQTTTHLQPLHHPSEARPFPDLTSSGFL
Format: cell-based
Experimental: DRE-Luciferase Reporter Assay
AHR binds to Dioxin Responsive Elements (DRE) upstream of genes that it activates. One measure of AHR activity is activation of a reporter gene, such as luciferase, downstream of one or multiple DRE elements. Luciferase activity reflects activation and inhibition of AHR in the cells expressing this reporter.
Murine Hepa1-6 or Hepa-1c1c7 or other murine cell line with a DRE-luciferase reporter either stably or transiently transfected are plated in media in plates (96-well, 384-well or other plates) and incubated overnight at 37 C in a CO2 incubator. Likewise, human HepG2 or other human cell line with a DRE-luciferase reporter either stably or transiently transfected are plated in media in plates (96-well, 384-well or other plates) and incubated overnight at 37 C in a CO2 incubator.
The next day, an AHR agonist compound is added. Cells are incubated for 6, 16 or 24 hours or another time point and then lysed for determination of luciferase activity as a read-out of the AHR activation. Luciferase can be measured with a commercial kit such as the Promega Luciferase kit or any kit or reagents that provide the luciferin substrate for measuring luciferase activity. The level of luciferase with only activating ligand (e.g. such as TCDD, kynurenine, ITE (2-(1H-indole-3-ylcarbonyl)-4-thiazolecarboxylic methyl ester), VAF347, BNF (beta-naphthoflavone), ICZ (6-formylindolo(3,2-b) carbazole or other AHR ligands) added is the maximum signal while the luciferase with no ligand is the minimum signal. EC50s can be determined as the concentration which activates half of the maximum luciferase activity.

EC50 [µM] | SMILES
> 1 | c1ccc(Nc2nc(-c3ccccc3)cs2)cc1 [Compound P-14]

Same assay, conditions: DRE-Luc HepG2 - Agonist: Average EC50 (μM), HepG2, Table 3

EC50 [µM] | SMILES
> 1 | O=C(O)c1cccc(Nc2nc(-c3cccc([N+](=O)[O-])c3)cs2)c1 [I-81]

Same assay, conditions: HepG2, Table 2; read-out: DRE-Luc HepG2 - Agonist: Average EC50

EC50 [µM] | SMILES
> 1 | CN(C)CCOc1cccc(-c2cnc(Nc3ccc(C(F)(F)F)cc3)o2)c1 [I-69]
> 1 | Oc1cccc(-c2cnc(Nc3ccc(C(F)(F)F)cc3)o2)c1 [I-68]
> 1 | C[N+](C)(CCOCCN(c1cccc(C(F)(F)F)c1)c1nc(-c2cccc(Cl)c2)cs1)CC(=O)O [I-51]
> 1 | Oc1ccccc1-c1cnc(Nc2ccc(C(F)(F)F)cc2)o1 [I-75]
> 1 | Oc1ccc(-c2cnc(Nc3ccc(C(F)(F)F)cc3)o2)cc1 [I-67]
> 1 | C[N+](C)(C)CCOc1ccc(-c2cnc(Nc3ccc(C(F)(F)F)cc3)o2)cc1 [I-73]
> 1 | C[N+](C)(CCO)CCOCCN(c1ccc(C(F)(F)F)cc1)c1nc(-c2cccc(Cl)c2)cs1 [I-52]
0.1 to 1 | FC(F)(F)c1ccc(Nc2nc(-c3cccc(Cl)c3)co2)cc1 [I-63]
> 1 | FC(F)(F)c1ccc(Nc2nnc(-c3cccc(Cl)c3)[nH]2)cc1 [I-65]
0.1 to 1 | C[N+](C)(CCO)CCOCCN(c1cccc(C(F)(F)F)c1)c1nc(-c2cccc(Cl)c2)cs1 [I-45]
0.1 to 1 | FC(F)(F)c1ccc(Nc2ncc(-c3ccccc3Cl)o2)cc1 [I-62]
> 1 | Cn1c(-c2cccc(Cl)c2)cnc1Nc1cccc(C(F)(F)F)c1 [I-71]
> 1 | FC(F)(F)c1ccc(Nc2nnc(-c3cccc(Cl)c3)o2)cc1 [I-64]
> 1 | C[N+](C)(C)CCOc1cccc(-c2cnc(Nc3ccc(C(F)(F)F)cc3)o2)c1 [I-72]
> 1 | CN(C)CCOc1ccc(-c2cnc(Nc3ccc(C(F)(F)F)cc3)o2)cc1 [I-74]
> 1 | Cn1cc(-c2cccc(Cl)c2)nc1Nc1cccc(C(F)(F)F)c1 [I-70]

Same assay, conditions: HepG2, Table 3; read-out: DRE-Luc HepG2 - Agonist: Average EC50

EC50 [µM] | SMILES
> 1 | COC(=O)c1cc(C#N)cc(-c2csc(Nc3cccc(C(F)(F)F)c3)n2)c1 [I-113]
0.1 to 1 | C[n+]1cccc(-c2csc(N(C(=O)NCCC[N+](C)(C)C)c3cccc(C(F)(F)F)c3)n2)c1 [I-98]
> 1 | N#Cc1cc(-c2csc(Nc3cccc(C(F)(F)F)c3)n2)cc([N+](=O)[O-])c1 [I-115]
> 1 | N#Cc1cccc(-c2csc(Nc3cccc(C(=O)O)c3)n2)c1 [I-114]
> 1 | C[N+](C)(C)CCCNC(=O)N(c1cccc(C(F)(F)F)c1)c1nc(-c2ccc[n+]([O-])c2)cs1 [I-110]
< 0.01 | CN(CCNC(=O)N(c1cccc(C(F)(F)F)c1)c1nc(-c2cccc(Cl)c2)cs1)CC(=O)O [I-86]
0.1 to 1 | COC(=O)c1cccc(-c2csc(Nc3cccc(C(F)(F)F)c3)n2)c1 [I-106]
> 1 | O=c1cc(-c2noc(Nc3cccc(C(F)(F)F)c3)n2)cc[nH]1 [I-135]
> 1 | O=S(=O)(O)c1cccc(-c2csc(Nc3cccc(C(F)(F)F)c3)n2)c1 [I-85]
0.1 to 1 | O=c1cc(-c2cc(Nc3cccc(C(F)(F)F)c3)no2)cc[nH]1 [I-139]
> 1 | CSc1cccc(Nc2nc(-c3cc[nH]c(=O)c3)cs2)c1 [I-142]
0.1 to 1 | COC(=O)c1cc(-c2csc(Nc3cccc(C(F)(F)F)c3)n2)cc([N+](=O)[O-])c1 [I-108]
> 1 | C[N+]1(C)CCN(C(=O)c2cccc(Nc3nc(-c4cccc([N+](=O)[O-])c4)cs3)c2)CC1 [I-88]
> 1 | NC(=O)c1cc(-c2csc(Nc3cccc(C(F)(F)F)c3)n2)c[n+]([O-])c1 [I-99]
> 1 | [O-][n+]1ccccc1-c1csc(Nc2cccc(C(F)(F)F)c2)n1 [I-94]
0.01 to 0.1 | O=[N+]([O-])c1cccc(-c2csc(Nc3ccc(C(F)(F)F)cc3)n2)c1 [I-84]
> 1 | N#Cc1cccc(-c2cc(Nc3cccc(C(F)(F)F)c3)on2)c1 [I-138]
> 1 | COC(=O)c1cncc(-c2csc(Nc3cccc(C(F)(F)F)c3)n2)c1 [I-102]
0.1 to 1 | O=c1cc(-c2nc(Nc3cccc(C(F)(F)F)c3)no2)cc[nH]1 [I-133]
0.1 to 1 | [O-][n+]1cccc(-c2csc(Nc3ccc(C(F)(F)F)cc3)n2)c1 [I-129]
0.1 to 1 | COC(=O)c1cc(-c2csc(Nc3cccc(C(F)(F)F)c3)n2)c[n+]([O-])c1 [I-127]
> 1 | N#Cc1cccc(-c2coc(Nc3cccc(C(F)(F)F)c3)n2)c1 [I-124]
> 1 | COC(=O)c1cccc(Nc2nc(-c3cccc(C#N)c3)cs2)c1 [I-104]
> 1 | [O-][n+]1cccc(-c2nc(Nc3cccc(C(F)(F)F)c3)no2)c1 [I-134]

EC50 [µM] | SMILES
> 1 | N#Cc1cc(C(=O)O)cc(-c2csc(Nc3cccc(C(F)(F)F)c3)n2)c1 [I-95]
> 1 | NC(=O)c1cccc(Nc2nc(-c3cccc([N+](=O)[O-])c3)cs2)c1 [I-82]
> 1 | [O-][n+]1cccc(-c2cc(Nc3cccc(C(F)(F)F)c3)on2)c1 [I-140]
0.1 to 1 | C[N+](C)(C)CCNC(=O)N(c1cccc(C(F)(F)F)c1)c1nc(-c2ccc[n+]([O-])c2)cs1 [I-118]
> 1 | O=c1cc(-c2cc(Nc3cccc(C(F)(F)F)c3)on2)cc[nH]1 [I-137]
> 1 | N#Cc1cccc(-c2cc(Nc3cccc(C(F)(F)F)c3)no2)c1 [I-151]
> 1 | O=C(O)c1cccc(Nc2nc(-c3ccc[n+]([O-])c3)cs2)c1 [I-116]
> 1 | NC(=O)c1cc(-c2csc(Nc3cccc(C(F)(F)F)c3)n2)cc([N+](=O)[O-])c1 [I-101]
> 1 | [O-][n+]1cccc(-c2cnc(Nc3cccc(C(F)(F)F)c3)o2)c1 [I-123]
> 1 | NC(=O)c1cccc(-c2csc(Nc3cncc(C(F)(F)F)c3)n2)c1 [I-105]
> 1 | O=C(O)c1cc(-c2csc(Nc3cccc(C(F)(F)F)c3)n2)c[n+]([O-])c1 [I-111]
> 1 | [O-][n+]1cccc(-c2csc(Nc3cncc(C(F)(F)F)c3)n2)c1 [I-122]
> 1 | [O-][n+]1cccc(-c2cc(Nc3cccc(C(F)(F)F)c3)no2)c1 [I-131]
< 0.01 | O=[N+]([O-])c1cccc(-c2csc(Nc3cncc(C(F)(F)F)c3)n2)c1 [I-96]
> 1 | [O-][n+]1cccc(-c2noc(Nc3cccc(C(F)(F)F)c3)n2)c1 [I-150]
> 1 | O=[N+]([O-])c1cccc(-c2csc(Nc3cccc(S(=O)(=O)O)c3)n2)c1 [I-103]
> 1 | CSc1cccc(-c2csc(Nc3cccc(C(F)(F)F)c3)n2)c1 [I-132]
0.01 to 0.1 | N#Cc1cc(Cl)cc(-c2csc(Nc3cccc(C(F)(F)F)c3)n2)c1 [I-80]
> 1 | O=C(O)c1cc(-c2csc(Nc3cccc(C(F)(F)F)c3)n2)cc([N+](=O)[O-])c1 [I-78]
< 0.01 | NC(=O)c1cccc(-c2csc(Nc3cccc(C(F)(F)F)n3)n2)c1 [I-119]
> 1 | COc1cc(-c2csc(Nc3cccc(SC)c3)n2)ccn1 [I-141]
> 1 | O=C(O)c1cncc(-c2csc(Nc3cccc(C(F)(F)F)c3)n2)c1 [I-79]
> 1 | O=c1cc(-c2cnc(Nc3cccc(C(F)(F)F)c3)o2)cc[nH]1 [I-126]
